# Tests used:
# [1] = Stability test (Test 3), closed vial, HPLC area percentage of Compound A; assay type: physicochemical
# Protocol: Stability test on each test sample was conducted under following storage conditions.
# (§1) Column: SUMIPAX ODS-A212 (silica gel binding with octadecyl group, particle size 5 μm; 6.0 mm φ×15 cm), mobile phase A solution: a mixture of 0.005 mol/L phosphate buffer (pH7.0) and acetonitrile (300:23(v/v)), mobile phase B solution: acetonitrile, solvent for sample: water and acetonitrile (90:10(v/v)), wavelength: 220 nm, column temperature: constant temperature around 25° C., flow rate: 1.0 mL/min, injection amount: 10 μL, and gradient condition: […]
# [2] = tested on: Gram positive bacteria, especially methicillin resistant staphylococcus and methicillin resistant coagulase negative staphylococcus; settings: cited from earlier work
# [3] = Stability test on Form I crystal under humidity condition (Test 4); assay type: physicochemical; settings: usual handling condition
# From the text: Evaluation was based on change of area percentage of Compound A with HPLC (High Performance Liquid Chromatography) under following conditions:
# as §1
# In order to confirm the stability on Form I crystal under humidity condition was conducted following test. The test was carried out by using moisture-absorbed Form I crystal, which was prepared by storing Form I crystal obtained by the method of Example 2 under the atmosphere with 53% RH in a whole day in order to make it absorb moisture.
compound,measurement,setting,value
"C[C@H]1C=C(c2csc(SC3=C(C(=O)O)N4C(=O)[C@H]([C@@H](C)O)[C@H]4[C@H]3C)n2)CN1 [amorphous Compound A, (4R,5S,6S)-6-[(1R)-1-hydroxyethyl]-4-methyl-3-({4-[(5S)-5-methyl-2,5-dihydro-1H-pyrrol-3-yl]-1,3-thiazol-2-yl}thio)-7-oxo-1-azabicyclo[3.2.0]hept-2-ene-2-carboxylic acid]",Compound A (HPLC surface area %),"[1]; closed vial at 50° C., 1 week",73.40%
same,Compound A (HPLC surface area %),"[1]; closed vial at 50° C., 3 weeks",54.53%
same,Compound A (HPLC surface area %),"[1]; closed vial at 50° C., 6 weeks",39.93%
same,Compound A (HPLC surface area %),"[1]; closed vial at 50° C., 8 weeks",41.33%
same,Compound A (HPLC surface area %),"[1]; closed vial at 50° C., 1 day",91.68%
same,Compound A (HPLC surface area %),"[1]; closed vial at 50° C., Initial",97.95%
"C[C@H]1C=C(c2csc(SC3=C(C(=O)O)N4C(=O)[C@H]([C@@H](C)O)[C@H]4[C@H]3C)n2)CN1 [Compound A, (4R,5S,6S)-6-[(1R)-1-hydroxyethyl]-4-methyl-3-({4-[(5S)-5-methyl-2,5-dihydro-1H-pyrrol-3-yl]-1,3-thiazol-2-yl}thio)-7-oxo-1-azabicyclo[3.2.0]hept-2-ene-2-carboxylic acid]",Activity against Gram positive bacteria,[2],excellent activity
"C[C@H]1C=C(c2csc(SC3=C(C(=O)O)N4C(=O)[C@H]([C@@H](C)O)[C@H]4[C@H]3C)n2)CN1 [Form I crystal, (4R,5S,6S)-6-[(1R)-1-hydroxyethyl]-4-methyl-3-({4-[(5S)-5-methyl-2,5-dihydro-1H-pyrrol-3-yl]-1,3-thiazol-2-yl}thio)-7-oxo-1-azabicyclo[3.2.0]hept-2-ene-2-carboxylic acid]",Compound A (HPLC surface area %),"[1]; closed vial at 55° C., 2 weeks",99.60%
same,Difference from initial value (HPLC surface area %),"[1]; closed vial at 55° C., 2 weeks",−0.17%
same,Compound A (HPLC surface area %),"[1]; closed vial at 55° C., 4 weeks",99.60%
same,Difference from initial value (HPLC surface area %),"[1]; closed vial at 55° C., 4 weeks",−0.17%
same,Compound A (HPLC surface area %),"[1]; closed vial at 55° C., Initial",99.77%
same,Difference from initial value (HPLC surface area %),"[1]; closed vial at 55° C., Initial",0%
same,Stability in words,"[1]; normal / usual storage condition, conclusion from the stability tests",extremely stable
same,Moisture absorption in words,[3],absorbs a little moisture
same,Stability in words,[3],excellent
